± gives the standard deviation of the averaged measurements.
Assays:
Assay in all cases: level (log10 ratio to DMSO vehicle control); higher = higher biomarker level / cell amount than vehicle control
[1] = compound: O=S(=O)(F)C(F)(F)C(F)(F)C(F)(F)C(F)(F)C(F)(F)C(F)(F)C(F)(F)C(F)(F)F [Perfluorooctanesulfonyl fluoride]; conditions: in DMSO
Experimental: (§1)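 BioMAP Diversity Plus panel of 12 human primary cell co-culture systems (3C, 4H, LPS, SAg, BT, BF4T, BE3C, CASM3C, HDF3CGF, KF3CT, MyoF, Mphg). Compounds were added 1 h before stimulation and left for 24 h (MyoF 48 h; BT 72 h for soluble read-outs or 6 d for IgG). Biomarkers were read by ELISA, cytotoxicity by SRB, PBMC viability and proliferation by Alamar Blue. Each well value was divided by the mean of 8 DMSO control wells on the same plate and log10 transformed; duplicate blinded samples were tested at 4 concentrations.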

[2] = compound: NC(=O)C(F)(F)C(F)(F)C(F)(F)C(F)F; conditions: in DMSO
Experimental: as §1

[3] = compound: FC(F)(F)C(F)(F)C(F)(F)C(F)(F)C(F)(F)C(F)(F)CC1CO1 [3-(Perfluorohexyl)-1,2-epoxypropane]; conditions: in DMSO
Experimental: as §1

[4] = compound: O=C(O)C(F)(F)C(F)(F)C(F)(F)C(F)(F)C(F)(F)C(F)(F)C(F)(F)C(F)(F)C(F)(F)C(F)F [11-H-Perfluoroundecanoic acid]; conditions: in DMSO
Experimental: as §1

Heptafluorobutyl iodide = compound: FC(F)(F)C(F)(F)C(F)(F)CI [Heptafluorobutyl iodide]; conditions: in DMSO
Experimental: as §1

[5] = compound: O=C(O)C=CC(F)(C(F)(F)F)C(F)(F)F [3-(Perfluoroisopropyl)-2-propenoic acid]; conditions: in DMSO
Experimental: as §1

Octafluoroadipamide = compound: NC(=O)C(F)(F)C(F)(F)C(F)(F)C(F)(F)C(N)=O [Octafluoroadipamide]; conditions: in DMSO
Experimental: as §1

[6] = compound: NS(=O)(=O)C(F)(F)C(F)(F)C(F)(F)C(F)(F)C(F)(F)C(F)(F)F [Perfluorohexanesulfonamide]; conditions: in DMSO
Experimental: as §1

[7] = compound: O=S(=O)(O)C(F)(F)C(F)(F)C(F)(F)C(F)(F)C(F)(F)C(F)(F)C(F)(F)C(F)(F)C(F)(F)C(F)(F)F [Sodium perfluorodecanesulfonate]; conditions: in DMSO
Experimental: as §1

[8] = compound: FC(F)(F)C(F)(F)CNCC(F)(F)C(F)(F)F [Bis(1H,1H-perfluoropropyl)amine]; conditions: in DMSO
Experimental: as §1

[9] = compound: COC(=O)C(F)(F)C(F)(F)OC(F)(C(F)(F)F)C(F)(F)OC(F)=C(F)F [Methyl perfluoro(3-(1-ethenyloxypropan-2-yloxy)propanoate)]; conditions: in DMSO
Experimental: as §1

[10] = compound: FC(F)(F)C(F)(F)C(F)(F)C(F)(F)C(F)(F)C(F)(F)C(F)(F)I [1-Iodopentadecafluoroheptane]; conditions: in DMSO
Experimental: as §1

[11] = compound: FC(F)(F)C(F)(F)C(F)(F)CC1CO1 [1H,1H-Heptafluorobutyl epoxide]; conditions: in DMSO
Experimental: as §1

Hexafluoroamylene glycol = compound: OCC(F)(F)C(F)(F)C(F)(F)CO [Hexafluoroamylene glycol]; conditions: in DMSO
Experimental: as §1

[12] = compound: O=S(=O)(O)CCC(F)(F)C(F)(F)C(F)(F)C(F)(F)C(F)(F)C(F)(F)F [6:2 Fluorotelomer sulfonic acid]; conditions: in DMSO
Experimental: as §1

[13] = compound: C=CC(=O)OCC(F)(F)C(F)(F)C(F)(F)COC(=O)C=C [1H,1H,5H,5H-Perfluoro-1,5-pentanediol diacrylate]; conditions: 6700 nM; in DMSO
Experimental: as §1

[14] = compound: C=C(C)C(=O)OCCC(F)(F)C(F)(F)C(F)(F)C(F)(F)C(F)(F)C(F)(F)F [6:2 Fluorotelomer methacrylate]; conditions: in DMSO
Experimental: as §1

Nonafluoropentanamide = compound: NC(=O)C(F)(F)C(F)(F)C(F)(F)C(F)(F)F [Nonafluoropentanamide]; conditions: in DMSO
Experimental: as §1

[15] = compound: O=S(=O)(Cl)C(F)(F)C(F)(F)C(F)(F)C(F)(F)C(F)(F)C(F)(F)C(F)(F)C(F)(F)F [Perfluoro-1-octanesulfonyl chloride]; conditions: in DMSO
Experimental: as §1

3C:CD87/uPAR
level (log10) ([1]; 6700 nM): -0.0125 ± 0.012
level (log10) ([1]; 20000 nM): -0.0085 ± 0.012
level (log10) ([1]; 60000 nM): -0.006 ± 0.0014
level (log10) ([2]; 6700 nM): -0.0235 ± 0.036
level (log10) ([2]; 20000 nM): -0.022 ± 0.03
level (log10) ([2]; 60000 nM): -0.023 ± 0.027
level (log10) ([3]; 6700 nM): 0.03 ± 0.0085
level (log10) ([3]; 20000 nM): 0.032 ± 0.0085
level (log10) ([3]; 60000 nM): 0.052 ± 0.017
level (log10) ([4]; 6700 nM): -0.0065 ± 0.018
level (log10) ([4]; 20000 nM): 0.0045 ± 0.023
level (log10) (Heptafluorobutyl iodide; 6700 nM): -0.0375 ± 0.0092
level (log10) (Heptafluorobutyl iodide; 20000 nM): -0.05 ± 0.051
level (log10) (Heptafluorobutyl iodide; 60000 nM): -0.032 ± 0.041
level (log10) ([5]; 6700 nM): 0.025 ± 0.0071
level (log10) ([5]; 20000 nM): 0.033 ± 0.038
level (log10) ([5]; 60000 nM): 0.0465 ± 0.042
level (log10) (Octafluoroadipamide; 6700 nM): 0.012 ± 0.011
level (log10) (Octafluoroadipamide; 20000 nM): -0.0005 ± 0.011
level (log10) (Octafluoroadipamide; 60000 nM): -0.0145 ± 0.0092
level (log10) ([6]; 6700 nM): -0.0335 ± 0.0035
level (log10) ([6]; 20000 nM): -0.0565 ± 0.036
level (log10) ([6]; 60000 nM): -0.137 ± 0.035
level (log10) ([7]; 1500 nM): -0.0055 ± 0.047
level (log10) ([7]; 4400 nM): -0.0275 ± 0.013
level (log10) ([7]; 13000 nM): -0.009 ± 0.037
level (log10) ([7]; 40000 nM): -0.222 ± 0.0085
level (log10) ([8]; 6700 nM): 0.021 ± 0.0028
level (log10) ([8]; 20000 nM): 0.0045 ± 0.015
level (log10) ([8]; 60000 nM): -0.0075 ± 0.0064
level (log10) ([9]; 6700 nM): 0.01 ± 0.041
level (log10) ([9]; 20000 nM): 0.031 ± 0.013
level (log10) ([10]; 6700 nM): -0.0165 ± 0.018
level (log10) ([10]; 20000 nM): -0.0175 ± 0.0078
level (log10) ([11]; 6700 nM): -0.0185 ± 0.026
level (log10) ([11]; 20000 nM): 0 ± 0.021
level (log10) ([11]; 60000 nM): -0.01 ± 0.0071
level (log10) (Hexafluoroamylene glycol; 6700 nM): -0.0295 ± 0.047
level (log10) (Hexafluoroamylene glycol; 20000 nM): -0.0235 ± 0.039
level (log10) (Hexafluoroamylene glycol; 60000 nM): -0.0075 ± 0.029
level (log10) ([12]; 6700 nM): -0.0235 ± 0.07
level (log10) ([12]; 20000 nM): -0.0245 ± 0.023
level (log10) ([12]; 60000 nM): -0.0015 ± 0.015
level (log10) [13]: 0.014 ± 0.034
level (log10) ([14]; 6700 nM): 0.003 ± 0.035
level (log10) ([14]; 20000 nM): 0.004 ± 0.034
level (log10) ([14]; 60000 nM): 0.0195 ± 0.039
level (log10) (Nonafluoropentanamide; 6700 nM): -0.037 ± 0.0085
level (log10) (Nonafluoropentanamide; 20000 nM): -0.018 ± 0.016
level (log10) (Nonafluoropentanamide; 60000 nM): -0.0095 ± 0.022
level (log10) ([15]; 6700 nM): 0.011 ± 0.024
level (log10) ([15]; 20000 nM): -0.0065 ± 0.016
level (log10) ([15]; 60000 nM): -0.199 ± 0.033

BE3C:CXCL10/IP-10
level (log10) ([1]; 6700 nM): 0.0095 ± 0.035
level (log10) ([1]; 20000 nM): 0.0115 ± 0.025
level (log10) ([1]; 60000 nM): 0.008 ± 0.03
level (log10) ([2]; 6700 nM): 0.0025 ± 0.0064
level (log10) ([2]; 20000 nM): -0.0015 ± 0.016
level (log10) ([2]; 60000 nM): 0.007 ± 0.013
level (log10) ([3]; 6700 nM): 0.001 ± 0.0057
level (log10) ([3]; 20000 nM): 0.001 ± 0.017
level (log10) ([3]; 60000 nM): 0.018 ± 0.0014
level (log10) ([4]; 6700 nM): -0.141 ± 0.012
level (log10) ([4]; 20000 nM): -0.874 ± 0.014
level (log10) (Heptafluorobutyl iodide; 6700 nM): -0.0015 ± 0.0064
level (log10) (Heptafluorobutyl iodide; 20000 nM): -0.005 ± 0.0057
level (log10) (Heptafluorobutyl iodide; 60000 nM): 0.005 ± 0.013
level (log10) ([5]; 6700 nM): 0.0055 ± 0.0035
level (log10) ([5]; 20000 nM): 0.004 ± 0.0099
level (log10) ([5]; 60000 nM): 0.009 ± 0.0014
level (log10) (Octafluoroadipamide; 6700 nM): -0.0275 ± 0.047
level (log10) (Octafluoroadipamide; 20000 nM): -0.031 ± 0.03
level (log10) (Octafluoroadipamide; 60000 nM): -0.0185 ± 0.056
level (log10) ([6]; 6700 nM): -0.016 ± 0.04
level (log10) ([6]; 20000 nM): -0.086 ± 0.042
level (log10) ([6]; 60000 nM): -0.235 ± 0.047
level (log10) ([7]; 1500 nM): -0.0045 ± 0.029
level (log10) ([7]; 4400 nM): -0.0165 ± 0.0021
level (log10) ([7]; 13000 nM): -0.076 ± 0.0042
level (log10) ([7]; 40000 nM): -0.201 ± 0.013
level (log10) ([8]; 6700 nM): -0.017 ± 0.035
level (log10) ([8]; 20000 nM): -0.0075 ± 0.028
level (log10) ([8]; 60000 nM): -0.001 ± 0.0028
level (log10) ([9]; 6700 nM): -0.02 ± 0.013
level (log10) ([9]; 20000 nM): -0.054 ± 0.013
level (log10) ([10]; 6700 nM): 0.01 ± 0.02
level (log10) ([10]; 20000 nM): 0.0195 ± 0.035
level (log10) ([11]; 6700 nM): -0.013 ± 0.0071
level (log10) ([11]; 20000 nM): -0.0065 ± 0.0092
level (log10) ([11]; 60000 nM): -0.012 ± 0.0042
level (log10) (Hexafluoroamylene glycol; 6700 nM): -0.009 ± 0.014
level (log10) (Hexafluoroamylene glycol; 20000 nM): -0.0115 ± 0.011
level (log10) (Hexafluoroamylene glycol; 60000 nM): -0.007 ± 0.02
level (log10) ([12]; 6700 nM): 0.0015 ± 0.0021
level (log10) ([12]; 20000 nM): -0.0095 ± 0.0078
level (log10) ([12]; 60000 nM): -0.0125 ± 0.018
level (log10) [13]: -0.0215 ± 0.0035
level (log10) ([14]; 6700 nM): 0.0275 ± 0.091
level (log10) ([14]; 20000 nM): 0.021 ± 0.068
level (log10) ([14]; 60000 nM): 0.034 ± 0.078
level (log10) (Nonafluoropentanamide; 6700 nM): 0.0145 ± 0.021
level (log10) (Nonafluoropentanamide; 20000 nM): -0.005 ± 0.038
level (log10) (Nonafluoropentanamide; 60000 nM): -0.0095 ± 0.015
level (log10) ([15]; 6700 nM): -0.0275 ± 0.0064
level (log10) ([15]; 20000 nM): -0.165 ± 0.033
level (log10) ([15]; 60000 nM): -0.927 ± 0.04
